Patent US12617752B2, “Rapidly metabolized lipid compound” (Beijing Jitai Life Sciences Ltd, priority 2023, dated 2026)

Key:
[1] = Particle size and PDI of lipid nanoparticles by dynamic light scattering; format: physicochemical; conditions: lipid nanoparticles with luciferase mRNA; ionizable lipid/cholesterol/DSPC/DMG-PEG2000 50/38.5/10/1.5 mol%
Experimental: (§1) Lipid nanoparticles were prepared by (1) dissolving and mixing ionizable lipid compounds, cholesterol, phospholipids and polyethylene glycolated lipids in ethanol at (molar percentages) 50%, 38.5%, 10% and 1.5%, respectively; (2) dissolving the mRNA active ingredient in 25 mM sodium acetate solution (pH=4.5); (3) using an automated high-throughput microfluidic system to mix the organic phase containing the lipid mixture and the aqueous phase containing the mRNA component in the flow ratio range of 1:1 to 1:4 at a mixing speed of 10 mL/min to 18 mL/min; (4) the prepared lipid nanoparticles (N/P ratio=6) were diluted with phosphate buffer solution and the nanoparticle solutions were ultrafiltered to the original preparation volume using ultrafiltration tubes (purchased from Millipore) with a cut-off molecular weight of 30 kDa; and (5) the obtained nanoparticles were filtered through a sterile 0.2 μm filter membrane and then stored in a sealed glass vial at low temperature.
(§2) The particle size and particle size dispersity index (PDI) of the prepared lipid nanoparticles were measured using a Zetasizer Pro (purchased from Malvern Instruments Ltd) and a DynaPro NanoStar (purchased from Wyatt) dynamic light scattering instrument. The degree of RNA encapsulation by lipid nanoparticles was characterized by the Encapsulation Efficiency %, which reflects the degree of binding of lipid nanoparticles to RNA fragments. This parameter was measured by the method of Quant-it™ RiboGreen RNA Assay (purchased from Invitrogen). Lipid nanoparticle samples were diluted in TE buffer (10 mM Tris-HCl, 1 mM EDTA, pH=7.5). A portion of the sample solution was removed, to which 0.5% Triton (Triton X-100) was added, and then allowed to stand at 37° C. for 30 minutes. Immediately after the addition of RIBOGREEN® reaction solution, the fluorescence values were read on a Varioskan LUX multifunctional microplate reader (purchased from Thermofisher) at 485 nm for absorption and 528 nm for emission to give the encapsulation efficiency values.

[2] = Encapsulation efficiency of lipid nanoparticles (Quant-it RiboGreen RNA Assay); format: physicochemical; conditions: lipid nanoparticles with luciferase mRNA
Experimental: as §1, §2

C57BL/6 mice = assay: In vivo delivery of luciferase mRNA lipid nanoparticles in mice (bioluminescence imaging); conditions: intravenous, single dose 0.5 mg/kg luciferase mRNA
Experimental: The delivery effect and safety of nanoparticles encapsulated with luciferase mRNA (Trilink, L-7202) in mice were evaluated. The test mice were SPF-grade C57BL/6 mice, female, 6-8 weeks old, weighing 18-22 g, and were purchased from SPF (Beijing) Biotechnology Co., Ltd. All animals were acclimatized for more than 7 days prior to the experiment, and had free access to food and water during the experiment. The conditions include alternating light and dark for 12/12 h, the indoor temperature of 20-26° C. and the humidity of 40-70%. The mice were randomly grouped. The lipid nanoparticles encapsulated with luciferase mRNA prepared above were injected into mice by intravenous administration at a single dose of 0.5 mg/kg mRNA, and the mice were subjected to in vivo bioluminescence assay using a Small Animal In Vivo Imaging System (IVIS LUMINA III, purchased from PerkinElmer) at 6 h after administration. The assay was performed as follows: D-luciferin solution was prepared in saline at a concentration of 15 mg/mL, and each mouse was given the substrate by intraperitoneal injection. At ten minutes after administration of the substrate, the mice were anesthetized in an anesthesia chamber with isoflurane at a concentration of 2.5%. The anesthetized mice were placed in IVIS for fluorescence imaging, and data acquisition and analysis were performed on the concentrated distribution area of fluorescence.
The in vivo delivery efficiency of lipid nanoparticle carriers was expressed as the mean values of fluorescence intensity and total photon count in different animals within the same subject group, as shown in Table 5-Table 11. Higher values of fluorescence intensity and total photon count indicate higher in vivo delivery efficiency of this mRNA fragment by lipid nanoparticles. The lipid nanoparticles containing the cationic lipids of the present disclosure have good in vivo delivery efficiency.

| SMILES | Particle size (nm) [1] | Particle-size distribution (PDI) [1] | Encapsulation efficiency (%) [2] | Total photon count in vivo at 6 hours after administration (Total Flux) (C57BL/6 mice) |
| --- | --- | --- | --- | --- |
| CCCCCCCCCC(=O)OCC(C)(C)CCCCCN(CCCO)CCCCCCCC(=O)OC(CCCCCCCC)CCCCCCCC [2b] | 104.61 nm | 0.013 | 80.17% | 8.31E+10 |
| CCCCCCCCCCCOC(=O)CCCCCN(CCO)CCCCCCC(C)(C)C(=O)OC(CCCCCCCC)CCCCCCCC [3a] | 89.72 nm | 0.021 | 94.23% | 1.03E+11 |
| CCCCCCCCCOC(=O)CCCCCCCN(CCO)CCCCCCC1(C(=O)OC(CCCCCCCC)CCCCCCCC)CC1 [6a] | 90.67 nm | 0.018 | 87.22% | 2.88E+10 |
| CCCCCCCCCC(=O)OCCCCCCCN(CCO)CCCCCCC(C)(C)C(=O)OC(CCCCCCCC)CCCCCCCC [6b] | 99.55 nm | 0.029 | 80.01% | 7.42E+10 |
| CCCCCCCCCOC(=O)CCCCCCCN(CCO)CCCCCCC(C)(C)C(=O)OCCC(CCCCCC)CCCCCC [7a] |  |  |  | 5.26E+10 |
| CCCCCCCCC(CCCCCCCC)OC(=O)C(C)(C)CCCCCCN(CCO)CCCCCCCOC(=O)CCCC(CCCCC)CCCCC [7b] | 101.67 nm | 0.030 | 88.68% | 2.00E+10 |
| CCCCCCCCCOC(=O)CCCCCCCN(CCO)CCCCCC(C)(C)CC(=O)OC(CCCCCCCC)CCCCCCCC [9a] | 103.03 nm | 0.031 | 89.64% | 2.06E+10 |
| CCCCCCCCCOC(=O)CCCCCCCN(CCO)CCCC(C)(C)CCC(=O)OC(CCCCCCCC)CCCCCCCC [10a] | 131.09 nm | 0.032 | 89.69% | 7.08E+10 |
| CCCCCCCCCCCOC(=O)CCCCCN(CCCO)CCCCCCC(C)(C)C(=O)OC(CCCCCCCC)CCCCCCCC [11a] | 98.01 nm | 0.021 | 89.36% | 2.05E+10 |
| CCCCCCCCCCCOC(=O)CCCCCN(CCCCO)CCCCCCC(C)(C)C(=O)OC(CCCCCCCC)CCCCCCCC [12a] | 104.85 nm | 0.021 | 85.24% | 1.39E+10 |
| CCCCCCCCCCCOC(=O)CCCCCN(CCO)CCCCCCC1(C(=O)OC(CCCCCCCC)CCCCCCCC)CC1 [13a] | 110.20 nm | 0.018 | 92.96% | 5.01E+10 |
